Tests used:
[1] = target: mCAR T350M mutant (mouse); test: cell-based or functional assay
[2] = target: wild-type mouse CAR (mCAR; nuclear orphan receptor constitutively active receptor / constitutive androstane receptor) (mouse); test: cell-based or functional assay
[3] = test system: chimeric receptors mh159, mh224, mh315, mh345; test: luciferase reporter assay in HepG2 cells, chimeric receptors within the LBD; type: cell-based, mouse/human
[4] = target: T1, mCAR (Mus musculus, UniProt O35627); test: cell-based transfection assay, (NR1)5-tk-luciferase reporter in HepG2 cells, wild-type mCAR; settings: for degree of repression: not affected by the mutation of Thr350
T1 construct: mCAR and hCAR expression vectors were constructed by cloning an entire mCAR; expressed in transfected cells; host or cells: HepG2
T1 sequence (O35627 1-358): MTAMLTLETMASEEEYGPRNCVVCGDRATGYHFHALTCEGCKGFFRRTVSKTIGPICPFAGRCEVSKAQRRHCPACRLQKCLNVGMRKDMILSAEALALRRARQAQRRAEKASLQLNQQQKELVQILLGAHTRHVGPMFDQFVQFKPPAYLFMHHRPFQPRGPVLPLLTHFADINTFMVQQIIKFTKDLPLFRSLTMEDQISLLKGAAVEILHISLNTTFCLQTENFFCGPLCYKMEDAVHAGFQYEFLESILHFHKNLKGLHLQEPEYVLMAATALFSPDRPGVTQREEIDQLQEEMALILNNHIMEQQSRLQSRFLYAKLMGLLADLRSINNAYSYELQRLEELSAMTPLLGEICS
Text: mCAR and hCAR expression vectors were constructed by cloning an entire mCAR (GenBank Accession No: AF009327, deposited on Jul. 22, 1997; SEQ ID NO: 15) or hCAR (GenBank Accession No: Z30425, deposited on Mar. 8, 1994; SEQ ID NO: 17) coding sequence into BamHI and XhoI sites of pCR3 plasmid as described previously (Sueyoshi et al., J Biol Chem 274:6043-6, 1999). Polymerase chain reaction (PCR) was used to amplify the desired hCAR or mCAR fragment from the plasmid. The amplified fragments used for the chimeras were nucleotides encoding amino acids: 1 to 86 of mCAR and 77 to 348 of hCAR (mhh), 1 to 116 of mCAR and 107 to 348 of hCAR (mmh), 1 to 76 of hCAR and 87 to 358 of mCAR (hmm), 1 to 106 of hCAR and 117 to 358 of mCAR (hhm). These fragments were PCR amplified using pfu polymerase and enzymatically phosphorylated primers. The amplified fragments were ligated, and a second PCR amplification was performed on the ligated DNA with the primers for 5′ and 3′ end of the chimeric DNA. The resulting second PCR products were cloned into a pCR3 vector (Invitrogen) with newly created BamHI and XhoI sites at the 5′ and the 3′ ends, respectively.
A mouse SRC-1 cDNA corresponding to amino acid residues 633 to 1450 of SRC-1 (GenBank Accession No: U64828), was amplified and cloned into the EcoRI and Hind III site of pcDNA3.1/myc-His(−)B plasmid (Invitrogen), thereby generating the SRC-1-expression plasmid pcDNA3.1-SRC-1. Wild-type mCAR or mCART350M was co-transfected with or without the SRC-1-expression plasmid (0.1 μg) into HepG2 cells.
The KN-62 repression was examined with and without the co-expression of SRC-1 (EXAMPLE 3).

[5] = target: T2, mCART350M (Mus musculus, UniProt O35627, T350M); test: luciferase reporter assay in HepG2 cells, mutant mCART350M; type: cell-based
T2 construct: mCAR and hCAR expression vectors were constructed by cloning an entire mCAR; expressed in transfected cells; host or cells: HepG2
T2 sequence (O35627 1-358 T350M): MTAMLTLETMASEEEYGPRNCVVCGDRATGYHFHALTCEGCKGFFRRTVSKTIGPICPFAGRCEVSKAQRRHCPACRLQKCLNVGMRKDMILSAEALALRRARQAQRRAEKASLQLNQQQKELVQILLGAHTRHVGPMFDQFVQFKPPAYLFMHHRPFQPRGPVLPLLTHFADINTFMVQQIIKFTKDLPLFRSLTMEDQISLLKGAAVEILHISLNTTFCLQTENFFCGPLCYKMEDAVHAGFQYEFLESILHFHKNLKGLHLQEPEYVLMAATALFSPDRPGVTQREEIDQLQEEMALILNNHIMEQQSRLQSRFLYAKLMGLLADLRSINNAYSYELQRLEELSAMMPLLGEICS
Procedure: The transfected cells were then treated, and luciferase assays performed as described in EXAMPLE 1.
To determine if this effect could be disrupted by mutating Thr350 to a Met, the mCART350M mutant described in EXAMPLE 2 was used. The KN-62 repression was examined with and without the co-expression of SRC-1 (EXAMPLE 3).

[6] = target: T1, mCAR; settings: Kawamoto et al. 2000; cited from earlier work
[7] = target: T3, hCAR (Homo sapiens, UniProt Q14994); settings: Kawamoto et al. 2000; cited from earlier work
T3 construct: expressed in transfected cells; host or cells: HepG2
T3 sequence (Q14994 1-348 isoform Q14994-2): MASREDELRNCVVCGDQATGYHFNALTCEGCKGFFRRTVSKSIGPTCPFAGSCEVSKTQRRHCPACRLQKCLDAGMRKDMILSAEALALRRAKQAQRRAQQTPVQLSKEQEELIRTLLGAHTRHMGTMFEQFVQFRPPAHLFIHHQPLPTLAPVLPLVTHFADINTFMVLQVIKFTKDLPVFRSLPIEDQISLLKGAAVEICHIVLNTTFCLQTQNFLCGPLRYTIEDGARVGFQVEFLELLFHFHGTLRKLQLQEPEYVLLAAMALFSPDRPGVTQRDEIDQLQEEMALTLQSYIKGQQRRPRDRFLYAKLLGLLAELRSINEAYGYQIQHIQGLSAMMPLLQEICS

[8] = test system: chimeric receptors hmm and hhm; test: luciferase reporter assay in HepG2 cells, chimeric receptors with mouse LBD; type: cell-based, mouse/human; settings: chimeras hmm and hhm
[9] = target: T4, mCAR L352A (Mus musculus, UniProt O35627, L352A); test: luciferase reporter gene activation assay (PBREM) in HepG2 cells, mCAR L352A mutant; type: cell-based; settings: only in the presence of exogenous SRC-1
T4 construct: mCAR and hCAR expression vectors were constructed by cloning an entire mCAR; expressed in transfected cells; host or cells: HepG2
T4 sequence (O35627 1-358 L352A): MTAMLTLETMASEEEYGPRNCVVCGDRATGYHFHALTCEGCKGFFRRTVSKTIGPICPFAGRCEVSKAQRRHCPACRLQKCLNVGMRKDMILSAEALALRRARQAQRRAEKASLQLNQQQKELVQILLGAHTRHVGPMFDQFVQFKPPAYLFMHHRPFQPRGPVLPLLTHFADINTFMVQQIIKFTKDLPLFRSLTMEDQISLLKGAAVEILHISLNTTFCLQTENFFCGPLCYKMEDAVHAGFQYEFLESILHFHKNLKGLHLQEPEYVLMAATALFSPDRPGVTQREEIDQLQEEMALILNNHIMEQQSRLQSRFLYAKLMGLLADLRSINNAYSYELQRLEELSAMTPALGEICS
Text: To examine the role of Leu352 in mCAR activity, site-directed mutagenesis was used as described in EXAMPLES 2 and 6.

[10] = test system: PB-responsive enhancer module (PBREM) luciferase reporter; test: constitutive activity of mutated CAR in luciferase reporter gene activation assay in HepG2 cells; settings: mCAR mutants versus mCAR

Molecule: mouse steroid receptor co-activator 1 (SRC-1), amino acid residues 633 to 1450 (from UniProt P70365 633-1447)
- trans-activation activity (NR1-luciferase reporter gene activity in co-transfected HepG2 cells, relative to DMSO-treated cells) [1]: 3 to 4 fold
- trans-activation activity (NR1-luciferase reporter gene activity in co-transfected HepG2 cells, relative to DMSO-treated cells) [2]: 3 to 4 fold

Molecule: CC(=O)[C@H]1CC[C@H]2[C@@H]3CCC4=CC(=O)CC[C@]4(C)[C@H]3CC[C@]12C [progesterone]
- repression of chimeric receptor activity [3]: None of these chimeric receptors was repressed

Molecule: C[C@]12CC[C@H]3[C@@H](CCC4=CC(=O)CC[C@@]43C)[C@@H]1CC[C@@H]2O [testosterone]
- repression of mCAR activity (luciferase reporter) ([4]; wild-type mCAR, HepG2 cells, 24 hours treatment): repressed
- repression of mCART350M activity ([5]; HepG2 cells): not the T350M mutant

Molecule: CN([C@@H](Cc1ccc(OS(=O)(=O)c2cccc3cnccc23)cc1)C(=O)N1CCN(c2ccccc2)CC1)S(=O)(=O)c1cccc2cnccc12 [KN-62]
- repression of constitutive activity of mCAR [6]: represses
- degree of repression ([4]; in the absence of SRC-1): 20-30%
- degree of repression ([4]; in the presence of co-expressed SRC-1): 80%
- repression of receptor activity by KN-62 ([4]; wild-type mCAR, KN-62 0.1-10 μM, with and without SRC-1): similarly repressed
- repression of receptor activity by KN-62 ([5]; mCART350M, KN-62 0.1-10 μM, with and without SRC-1): similarly repressed
- repression of constitutive activity of hCAR [7]: not hCAR
- repression of chimera activity [8]: 2-4 fold

Molecule: CN(C)CCCN1c2ccccc2Sc2ccc(Cl)cc21 [chloropromazine]
- activation of L352A mutant [9]: activated

B1: T176V: mCAR with single mutation of Thr176 to valine (protein, UniProt O35627 1-358, looked up, variant T176V)
Nuclear receptor subfamily 1 …: MTAMLTLETMASEEEYGPRNCVVCGDRATGYHFHALTCEGCKGFFRRTVSKTIGPICPFAGRCEVSKAQRRHCPACRLQKCLNVGMRKDMILSAEALALRRARQAQRRAEKASLQLNQQQKELVQILLGAHTRHVGPMFDQFVQFKPPAYLFMHHRPFQPRGPVLPLLTHFADINVFMVQQIIKFTKDLPLFRSLTMEDQISLLKGAAVEILHISLNTTFCLQTENFFCGPLCYKMEDAVHAGFQYEFLESILHFHKNLKGLHLQEPEYVLMAATALFSPDRPGVTQREEIDQLQEEMALILNNHIMEQQSRLQSRFLYAKLMGLLADLRSINNAYSYELQRLEELSAMTPLLGEICS
- constitutive activity of mCAR [10]: decreased

B2: L352A: mCAR with Ala substitution of Leu352 (protein, UniProt O35627 1-358, looked up, variant L352A)
Nuclear receptor subfamily 1 …: MTAMLTLETMASEEEYGPRNCVVCGDRATGYHFHALTCEGCKGFFRRTVSKTIGPICPFAGRCEVSKAQRRHCPACRLQKCLNVGMRKDMILSAEALALRRARQAQRRAEKASLQLNQQQKELVQILLGAHTRHVGPMFDQFVQFKPPAYLFMHHRPFQPRGPVLPLLTHFADINTFMVQQIIKFTKDLPLFRSLTMEDQISLLKGAAVEILHISLNTTFCLQTENFFCGPLCYKMEDAVHAGFQYEFLESILHFHKNLKGLHLQEPEYVLMAATALFSPDRPGVTQREEIDQLQEEMALILNNHIMEQQSRLQSRFLYAKLMGLLADLRSINNAYSYELQRLEELSAMTPALGEICS
- constitutive activity of mCAR [10]: decreased

B3: T176L: mCAR with single mutation of Thr176 to leucine (protein, UniProt O35627 1-358, looked up, variant T176L)
Nuclear receptor subfamily 1 …: MTAMLTLETMASEEEYGPRNCVVCGDRATGYHFHALTCEGCKGFFRRTVSKTIGPICPFAGRCEVSKAQRRHCPACRLQKCLNVGMRKDMILSAEALALRRARQAQRRAEKASLQLNQQQKELVQILLGAHTRHVGPMFDQFVQFKPPAYLFMHHRPFQPRGPVLPLLTHFADINLFMVQQIIKFTKDLPLFRSLTMEDQISLLKGAAVEILHISLNTTFCLQTENFFCGPLCYKMEDAVHAGFQYEFLESILHFHKNLKGLHLQEPEYVLMAATALFSPDRPGVTQREEIDQLQEEMALILNNHIMEQQSRLQSRFLYAKLMGLLADLRSINNAYSYELQRLEELSAMTPLLGEICS
- constitutive activity of mCAR [10]: decreased

B4: SRC-1: co-activator steroid receptor co-activator 1, mouse residues 633 to 1450 expressed from pcDNA3.1-SRC-1 (protein)
chain: TSHKLVQLLTTTAEQQLRHADIDTSCKDVLSCTGTSSSASSNPSGGTCPSSHSSLTERHKILHRLLQEGSPSDITTLSVEPEKKDSVPASTAVSVSGQSQGSASIKLELDAAKKKESKDHQLLRYLLDKDEKDLRSTPNLCLDDVKVKVEKKEQMDPCNTNPTPMTKPAPEEVKLESQSQFTADLDQFDQLLPTLEKAAQLPSLCETDRMDGAVTGVSIKAEVLPASLQPTTARAAPRLSRLPELELEAIDNQFGQPGAGDQIPWANNTLTTINQNKPEDQCISSQLDELLCPPTTVEGRNDEKALLEQLVSFLSGKDETELAELDRALGIDKLVQGGGLDVLSERFPPQQATPPLMMEDRPTLYSQPYSSPSPTAGLSGPFQGMVRQKPSLGAMPVQVTPPRGTFSPNMGMQPRQTLNRPPAAPNQLRLQLQQRLQGQQQLMHQNRQAILNQFAANAPVGMNMRSGMQQQITPQPPLNAQMLAQRQRELYSQQHRQRQIIQQQRAMLMRHQSFGNNIPPSSGLPVQMGTPRLPQGAPQQFPYPPNYGTNPGTPPASTSPFSQLAANPEASLATRSSMVNRGMAGNMGGQFGAGISPQMQQNVFQYPGPGLVPQGEATFAPSLSPGSSMVPMPVPPPQSSLLQQTPPTSGYQSPDMKAWQQGTMGNNNVFSQAVQSQPAPAQPGVYNNMSITVSMAGGNANIQNMNPMMGQMQMSSLQMPGMNTVCSEQMNDPALRHTGLYCNQLSSTDLLKTDADGNQQVQQVQVFADVQCTVNLVGGDPYLNQPGPLGTQKPTSGPQTPQAQQKSLLQQLLTE
- increase of trans-activation activity by co-expression ([4]; wild-type mCAR, relative to DMSO-treated cells): 3- to 4 fold
- increase of trans-activation activity by co-expression ([5]; mCART350M, relative to DMSO-treated cells): 3- to 4 fold

Reference: patent US7365160B2, “Mutated constitutively active nuclear orphan receptor” (The United States of America as represented by the …, priority 2002, dated 2008)
